The record followed here is PMC9503024, “Structure and Biological Properties of Ribosome-Inactivating Proteins and Lectins from Elder (Sambucus nigra L.) Leaves” (Toxins, 2022).

Holding throughout (settings): human erythrocytes; room temperature, 1 h; serial dilutions
The target in experiment [1] is SNAld (Sambucus nigra, UniProt Q8GTA6).
Experiment [2] concerns the target nigrin l (Sambucus nigra, UniProt Q8GT32).
In experiment [3] the target is SNAlm (Sambucus nigra, UniProt Q8GTA5).
Chain of SNAlm (Q8GTA5 57-316 limits assumed): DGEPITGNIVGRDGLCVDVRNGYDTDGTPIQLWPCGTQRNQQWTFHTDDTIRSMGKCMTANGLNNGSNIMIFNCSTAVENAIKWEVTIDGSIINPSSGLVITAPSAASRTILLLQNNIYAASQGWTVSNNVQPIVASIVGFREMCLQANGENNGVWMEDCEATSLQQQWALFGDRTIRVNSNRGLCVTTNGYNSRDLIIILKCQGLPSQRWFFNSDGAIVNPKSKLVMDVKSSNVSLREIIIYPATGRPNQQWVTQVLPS

Chain of nigrin l (Q8GT32 26-282 limits assumed): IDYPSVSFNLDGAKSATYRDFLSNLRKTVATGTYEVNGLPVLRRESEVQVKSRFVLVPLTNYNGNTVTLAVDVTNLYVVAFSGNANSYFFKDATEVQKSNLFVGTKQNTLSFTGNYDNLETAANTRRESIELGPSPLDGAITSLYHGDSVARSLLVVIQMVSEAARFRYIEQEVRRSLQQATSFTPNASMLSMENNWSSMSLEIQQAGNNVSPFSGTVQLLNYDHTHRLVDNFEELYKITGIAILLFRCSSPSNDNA
Chain of nigrin l (Q8GT32 298-563 limits assumed): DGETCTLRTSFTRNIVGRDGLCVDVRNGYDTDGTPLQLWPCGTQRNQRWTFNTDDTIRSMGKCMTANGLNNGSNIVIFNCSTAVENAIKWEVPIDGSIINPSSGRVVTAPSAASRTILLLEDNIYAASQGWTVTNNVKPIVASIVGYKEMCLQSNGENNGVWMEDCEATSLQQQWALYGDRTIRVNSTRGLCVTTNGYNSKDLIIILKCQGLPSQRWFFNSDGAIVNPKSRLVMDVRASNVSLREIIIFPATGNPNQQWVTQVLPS
Chain of SNAld (Q8GTA6 entry or part of it): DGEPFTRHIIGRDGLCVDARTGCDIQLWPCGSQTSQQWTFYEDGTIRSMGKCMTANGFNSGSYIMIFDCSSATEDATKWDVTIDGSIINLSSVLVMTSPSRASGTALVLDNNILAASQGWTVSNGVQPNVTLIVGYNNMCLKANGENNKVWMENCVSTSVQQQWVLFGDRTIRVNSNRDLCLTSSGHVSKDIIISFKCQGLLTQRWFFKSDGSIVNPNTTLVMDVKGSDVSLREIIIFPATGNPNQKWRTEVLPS

In experiment [1], `OC[C@H]1OC(O)[C@H](O)[C@@H](O)[C@H]1O` (stereo partly drawn) [D-galactose] had an SNAld of 100 mM. The same compound displayed a Nigrin l in experiment [2] of 50 mM. For the same compound, the SNAlm in experiment [3] is 6.25 mM.
For `OC[C@H]1O[C@@H](O[C@H]2[C@H](O)[C@@H](O)C(O)O[C@@H]2CO)[C@H](O)[C@@H](O)[C@H]1O` (stereo partly drawn) [Lactose, β-D-galactopyranosyl-(1→4)-D-glucose] the same measures were 25 mM, 12.5 mM and 1.56 mM.
